How the values were obtained:
BTK in mouse bone marrow = BTK in mouse bone marrow (Mus musculus (Mouse), UniProt P35991); assay: Mouse Bone Marrow Assay (MSD ELISA of BTK degradation in mouse bone marrow); format: in vivo; settings: female C57BL/6J mice, single dose of Dose A, bone marrow collected after 24 hours, % remaining BTK in vehicle versus treated samples
Protocol: Female C57BL/6J mice (Jackson Laboratories) were used for this study. Compounds or vehicle/control were prepped with EtOH; PEG-400; Phosal 53 MCT (10:30:60, v/v). Four mice were tested per compound or vehicle/control. On Day 1, mice were administered a single dose of Dose A. On Day 2 (after 24 hours), tissue (bone marrow) was collected from one hind leg per mouse.
An MSD (Meso Scale Discovery) ELISA (enzyme-linked immunosorbent assay) based assay was used to determine BTK degradation in mouse bone marrow. The following materials and equipment were used: 10% NP40 solution (nonionic polyoxyethylene surfactant, ThermoFisher, cat no. 28324); protease inhibitor mini tablet (Roche, cat no. 05 892 970 001); PhosphoSTOP™ tablet (Roche, cat no. 04 906 837 001); Pierce™ BCA Protein Assay Kit (Thermofisher, Cat No. 23225); Precellys® 2 mL lysing tube with 2.8 mm beads (VWR, cat no. 10032-756); Bertin Precellys® 24/Cryolys ® cooling system; 96-well MSD streptavidin pre-coated plates (MSD, cat no. L15SA-1); MSD Blocker A (MSD, cat no. R93BA-4); capture antibody, biotinylated BTK mAb (BD Biosciences, cat no. 624008; custom order); primary detection antibody, BTK RpAb (rabbit polyclonal antibody, CST, cat no. 8547S, D3H5 clone); secondary detection antibody, anti-Rabbit-Sulfo-Tag (MSD, cat no. R32AB-1); read Buffer, 4× (MSD, cat no. R92TC-1); recombinant BTK protein (Thermofisher, cat no. PR5442A); MSD Tris Wash Buffer (10×) (MSD, cat no. R61TX-1); PBS (phosphate-buffered saline); deionized water (diH2O); Lysis Buffer [0.2% NP40 in PBS+Protease Inhibitor tablet (1 tablet/10 mL)+PhosphoSTOP tablet (1 tablet/10 mL)]; 3% MSD Blocker A [MSD Blocker A+450 mL diH2O+50 mL]; and 10× MSD Tris Wash Buffer.
Lysis buffer [(PBS+0.2% NP40+PI (protease inhibitor)+PhosphoSTOP)]was prepared and put on ice until it was fully cold. Ice cold lysis buffer […] was added to each Precellys® tube containing beads and bone marrow sample. Sample tubes were transferred into Precellys® machine and homogenized using 5000 rpm -2×20 seconds. The sample lysates were centrifuged at 14,000 rpm for 20 minutes at 4° C. after homogenizing.
The protein concentration was determined using Pierce™ BCA Protein Assay Kit following manufacturer's recommended protocol. The protein normalized working solution was prepared, using 30 μg protein per sample lysate for assay.
A 300 ng/ml working stock solution of recombinant BTK protein in lysis buffer was prepared, and the sample was serially diluted at 3-fold dilution (10-point assay, highest concentration was 300 ng/mL and lowest concentration was 0.015 ng/mL)
MSD plate coating: Coating antibody (biotinylated-BTK mAb) stock solution was prepared at 1 μg/mL in PBS buffer. 50 μL/well capture antibody (Biotinylated BTK mAb) solution was added, and the plates were shaken gently at ambient temperature for two hours. The plates were washed 3 times with 1× MSD Tris Wash Buffer in a plate washer (300 μL/well), and the plates were blocked with 3% MSD Blocker A (150 μL/well). The plates were incubated for an additional 1-2 hours at ambient temperature with gentle shaking. The plates were washed 3 times with 1× MSD wash buffer using plate washer. Bone marrow lysates (30 μg) at a final volume of 50 μL/well were added into the plates. The serially diluted standard samples were added to the same plates at a final volume of 50 μL/well. The plates were incubated overnight at 4° C. with gentle shaking.
The plates were washed three times with 1× MSD wash buffer (prepared from 10× concentration buffer) using plate washer. Primary detection antibody at 50 μL/well was added (BTK RpAb; 1:1000 dilution in 1% MSD Blocker A). The plates were incubated for two hours at ambient temperature with gentle shaking. The plates were washed three times with 1× MSD wash buffer using plate washer. Anti-Rabbit-SULFO-TAG secondary antibodies (50 μl/well) were added, 1:500 diluted in 1% MSD Blocker A, and the plates were incubated for one to two hours at ambient temperature. […]

[1] = target: BTK protein in human whole blood (Homo sapiens (Human), UniProt Q06187); assay: Btk protein in human whole blood MSD ELISA based assay (Btk degradation); format: cell-based; settings: human whole blood from healthy donors, 6 hours at 37° C., half maximal degradation concentration; read-out: hWB BTK DC50
Sequence of BTK protein in human whole blood (Q06187 whole entry): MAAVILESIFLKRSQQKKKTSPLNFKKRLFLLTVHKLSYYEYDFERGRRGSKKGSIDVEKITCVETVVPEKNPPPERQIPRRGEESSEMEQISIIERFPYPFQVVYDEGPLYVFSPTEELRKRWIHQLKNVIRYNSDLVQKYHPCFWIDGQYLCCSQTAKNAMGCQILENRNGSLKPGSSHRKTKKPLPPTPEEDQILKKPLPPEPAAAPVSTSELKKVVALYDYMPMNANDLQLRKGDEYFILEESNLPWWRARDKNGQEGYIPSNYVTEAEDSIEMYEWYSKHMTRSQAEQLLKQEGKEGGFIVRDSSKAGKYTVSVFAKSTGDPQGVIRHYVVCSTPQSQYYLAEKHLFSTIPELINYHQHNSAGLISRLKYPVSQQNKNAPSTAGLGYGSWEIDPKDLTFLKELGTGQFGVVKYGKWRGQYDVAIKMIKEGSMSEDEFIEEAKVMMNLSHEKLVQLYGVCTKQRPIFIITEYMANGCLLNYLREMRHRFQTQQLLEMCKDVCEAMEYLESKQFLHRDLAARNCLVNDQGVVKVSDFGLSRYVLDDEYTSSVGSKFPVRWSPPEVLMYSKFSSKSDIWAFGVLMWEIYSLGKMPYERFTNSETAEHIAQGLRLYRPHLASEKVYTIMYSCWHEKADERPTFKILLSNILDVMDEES
How it was run: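 Fresh healthy-donor human whole blood incubated 6 h at 37 °C with 8-point 1:4 dilutions from 3 μM (final 0.2% DMSO), in duplicate. Remaining BTK in lysates measured by MSD sandwich ELISA. DC50 by non-linear regression; Dmax as maximal degradation versus DMSO.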

Sequence of BTK in mouse bone marrow (P35991 whole entry): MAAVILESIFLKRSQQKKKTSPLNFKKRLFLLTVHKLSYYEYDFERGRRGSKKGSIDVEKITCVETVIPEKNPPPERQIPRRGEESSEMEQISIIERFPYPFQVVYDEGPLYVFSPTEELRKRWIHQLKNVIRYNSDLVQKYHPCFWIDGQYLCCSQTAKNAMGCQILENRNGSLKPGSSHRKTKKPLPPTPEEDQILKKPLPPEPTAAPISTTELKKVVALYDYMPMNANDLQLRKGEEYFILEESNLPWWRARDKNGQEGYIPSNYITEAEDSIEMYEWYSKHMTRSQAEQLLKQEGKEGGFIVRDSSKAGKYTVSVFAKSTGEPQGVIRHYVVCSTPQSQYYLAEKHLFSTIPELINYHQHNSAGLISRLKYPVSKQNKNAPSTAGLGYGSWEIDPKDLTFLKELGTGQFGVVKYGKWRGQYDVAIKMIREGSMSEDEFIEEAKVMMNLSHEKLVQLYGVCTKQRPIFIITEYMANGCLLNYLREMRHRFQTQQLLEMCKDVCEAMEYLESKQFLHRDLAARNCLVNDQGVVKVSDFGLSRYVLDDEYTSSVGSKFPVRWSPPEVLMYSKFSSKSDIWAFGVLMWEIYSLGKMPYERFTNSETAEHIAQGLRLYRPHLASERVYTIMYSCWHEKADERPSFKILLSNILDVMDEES

| Structure (SMILES) | Mouse Bone Marrow (%), % remaining BTK (BTK in mouse bone marrow) [%] | DC50 [1] [nM] |
| --- | --- | --- |
| CC[C@H]1CN(CCc2ccc(N3CCC(=O)NC3=O)c(F)c2)CCN1c1ccc(Nc2cc(-c3ccc([C@@H](C)NC(=O)c4nc(C(C)(C)C)no4)c(C)c3)ncn2)nc1 [Example 7, 3-tert-butyl-N-[(1R)-1-{4-[6-({5-[(2S)-4-{2-[4-(2,4-dioxo-1,3-diazinan-1-yl)-3-fluorophenyl]ethyl}-2-ethylpiperazin-1-yl]pyridin-2-yl}amino)pyrimidin-4-yl]-2-methylphenyl}ethyl]-1,2,4-oxadiazole-5-carboxamide] | 22 | 18.7 |
| Cc1cc(-c2cc(Nc3ccc(N4CCN(CCc5ccc(N6CCC(=O)NC6=O)cc5)CC4(C)C)cn3)ncn2)ccc1[C@@H](C)NC(=O)c1nc(C(C)(C)C)no1 [Example 9, 3-tert-butyl-N-{(1R)-1-[4-(6-{[5-(4-{2-[4-(2,4-dioxo-1,3-diazinan-1-yl)phenyl]ethyl}-2,2-dimethylpiperazin-1-yl)pyridin-2-yl]amino}pyrimidin-4-yl)-2-methylphenyl]ethyl}-1,2,4-oxadiazole-5-carboxamide] | 31 | 9.61 |
| Cc1cc(-c2cc(Nc3ccc(N4CCN(CCc5ccc(N6CCC(=O)NC6=O)cc5)C[C@@H]4C(C)C)cn3)ncn2)ccc1[C@@H](C)NC(=O)c1nc(C(C)(C)C)no1 [Example 13, 3-tert-butyl-N-[(1R)-1-{4-[6-({5-[(2S)-4-{2-[4-(2,4-dioxo-1,3-diazinan-1-yl)phenyl]ethyl}-2-(propan-2-yl)piperazin-1-yl]pyridin-2-yl}amino)pyrimidin-4-yl]-2-methylphenyl}ethyl]-1,2,4-oxadiazole-5-carboxamide] | 26 | 17.3 |
| Cc1cc(-c2cc(Nc3ccc(N4CCN(CCc5ccc(N6CCC(=O)NC6=O)c(F)c5)C[C@@H]4C)cn3)ncn2)ccc1[C@@H](C)NC(=O)c1nc(C(C)(C)C)no1 [Example 4, 3-tert-butyl-N-[(1R)-1-{4-[6-({5-[(2S)-4-{2-[4-(2,4-dioxo-1,3-diazinan-1-yl)-3-fluorophenyl]ethyl}-2-methylpiperazin-1-yl]pyridin-2-yl}amino)pyrimidin-4-yl]-2-methylphenyl}ethyl]-1,2,4-oxadiazole-5-carboxamide] | 13 | 7.62 |

Other lines, results leading:

| Mouse Bone Marrow (%), % remaining BTK (BTK in mouse bone marrow) [%] | DC50 [1] [nM] | Structure (SMILES) |
| --- | --- | --- |
| 19 | 2.45 | CC[C@H]1CN(CCc2ccc(N3CCC(=O)NC3=O)cc2)CCN1c1ccc(Nc2cc(-c3ccc([C@@H](C)NC(=O)c4nc(C(C)(C)C)no4)c(C)c3)ncn2)nc1 [Example 6, 3-tert-butyl-N-[(1R)-1-{4-[6-({5-[(2S)-4-{2-[4-(2,4-dioxo-1,3-diazinan-1-yl)phenyl]ethyl}-2-ethylpiperazin-1-yl]pyridin-2-yl}amino)pyrimidin-4-yl]-2-methylphenyl}ethyl]-1,2,4-oxadiazole-5-carboxamide] |
| 30 | 4.04 | CC[C@@H]1CN(CCc2ccc(N3CCC(=O)NC3=O)cc2)CCN1c1ccc(Nc2cc(-c3ccc([C@@H](C)NC(=O)c4nc(C(C)(C)C)no4)c(C)c3)ncn2)nc1 [Example 8, 3-tert-butyl-N-[(1R)-1-{4-[6-({5-[(2R)-4-{2-[4-(2,4-dioxo-1,3-diazinan-1-yl)phenyl]ethyl}-2-ethylpiperazin-1-yl]pyridin-2-yl}amino)pyrimidin-4-yl]-2-methylphenyl}ethyl]-1,2,4-oxadiazole-5-carboxamide] |

From patent publication US20240109877A1, “PYRIMIDINES FOR DEGRADING BRUTON'S TYROSINE KINASE” (AbbVie Inc., priority 2022, published 2024)
